The source made the active and inactive calls. No cut-off for these calls is given here.
How the values were obtained:
[1] = Displacement of fluorescein-neomycin from d(G4C4)2 DNA at 200 nM by fluorescence assay
[2] = Binding affinity to d(G4C4)2 DNA major groove assessed as stabilization of A-from DNA conformation at 0.05 to 1.5 equiv after 30 mins by fluorescein-neomycin probe based CD spectroscopic method
[3] = Binding affinity to d(G4C4)2 DNA major groove assessed as stabilization of A-from DNA conformation at 0.25 to 1.5 equiv after 30 mins by thiazole orange probe based CD spectroscopic method
[4] = Displacement of fluorescein-neomycin from d(G4C4)2 DNA by Scatchard plot analysis
[5] = Displacement of thiazole orange from d(G4C4)2 DNA by Scatchard plot analysis
[6] = Binding affinity to d(G4C4)2 DNA major groove assessed as stabilization of A-from DNA conformation by measuring induction of sharper band at 265 nanometer at drug:DNA molar ratio of 1:1 after 30 mins by CD spectroscopic method
[7] = Displacement of fluorescein-neomycin from d(G4C4)2 DNA major groove by fluorescence titration assay
[8] = Binding affinity to d(G4C4)2 DNA major groove assessed as stabilization of A-from DNA conformation at drug:DNA molar ratio of 4:1 after 30 mins by CD spectroscopic method
[9] = Binding affinity to d(G4C4)2 DNA major groove assessed as stabilization of A-from DNA conformation after 30 mins by CD spectroscopic method

Row | SMILES | inhibition [1] | Ka [4] | Ka [5] | other results
1 | NCC1O[C@H](O[C@H]2[C@@H](O)[C@H](O[C@@H]3[C@@H](O)[C@H](N)C[C@H](N)[C@H]3O[C@H]3O[C@H](CN)[C@@H](O)[C@H](O)[C@H]3N)O[C@@H]2CNC(=S)Nc2ccc3c(c2)C(=O)c2ccccc2C3=O)[C@H](N)[C@@H](O)[C@@H]1O (some centres undefined) | Active | – | – | –
2 | NCC1O[C@H](O[C@H]2[C@@H](O)[C@H](O[C@@H]3[C@@H](O)[C@H](N)C[C@H](N)[C@H]3O[C@H]3O[C@H](CN)[C@@H](O)[C@H](O)[C@H]3N)O[C@@H]2CNC(=S)NCCCNC(=S)NCc2ccc3c(c2)C(=O)c2ccccc2C3=O)[C@H](N)[C@@H](O)[C@@H]1O (some centres undefined) | Active | – | – | –
3 | NCC1O[C@H](O[C@H]2[C@@H](O)[C@H](O[C@@H]3[C@@H](O)[C@H](N)C[C@H](N)[C@H]3O[C@H]3O[C@H](CN)[C@@H](O)[C@H](O)[C@H]3N)O[C@@H]2CSCCNC(=S)NCc2ccc3c(c2)C(=O)c2ccccc2C3=O)[C@H](N)[C@@H](O)[C@@H]1O (some centres undefined) | Active | 25.3 ×10⁶ /M | 3.62 ×10⁶ /M | Activity [2]: Active; Activity [3]: Active
4 | NCC1O[C@H](O[C@H]2[C@@H](O)[C@H](O[C@H]3[C@H](O)[C@@H](N)C[C@@H](N)[C@@H]3O[C@H]3O[C@H](CN)[C@@H](O)[C@H](O)[C@H]3N)O[C@@H]2CO)[C@H](N)[C@@H](O)[C@@H]1O (some centres undefined) | inactive | – | – | Activity [6]: Active
5 | NCC1O[C@H](O[C@H]2[C@@H](O)[C@H](O[C@@H]3[C@@H](O)[C@H](N)C[C@H](N)[C@H]3O[C@H]3O[C@H](CN)[C@@H](O)[C@H](O)[C@H]3N)O[C@@H]2CNC(=S)NCc2ccc3c(c2)C(=O)c2ccccc2C3=O)[C@H](N)[C@@H](O)[C@@H]1O (some centres undefined) | Active | 14.1 ×10⁶ /M | 5.27 ×10⁶ /M | IC50 [7]: 748 nM
6 | NCC1O[C@H](O[C@H]2[C@@H](O)[C@H](O[C@@H]3[C@@H](O)[C@H](N)C[C@H](N)[C@H]3O[C@H]3O[C@H](CN)[C@@H](O)[C@H](O)[C@H]3N)O[C@@H]2CSCCNC(=S)NCCCCCCCCCCNC(=S)NCc2ccc3c(c2)C(=O)c2ccccc2C3=O)[C@H](N)[C@@H](O)[C@@H]1O (some centres undefined) | Active | – | – | –
7 | NCCCNCCCCNCCCN | – | – | – | Activity [6]: Active
8 | NCC1O[C@H](O[C@H]2[C@@H](O)[C@H](O[C@@H]3[C@@H](O)[C@H](N)C[C@H](N)[C@H]3O[C@H]3O[C@H](CN)[C@@H](O)[C@H](O)[C@H]3N)O[C@@H]2CNC(=S)NCCCOCCCCOCCCNC(=S)NCc2ccc3c(c2)C(=O)c2ccccc2C3=O)[C@H](N)[C@@H](O)[C@@H]1O (some centres undefined) | Active | 8.83 ×10⁶ /M | 11.8 ×10⁶ /M | –
9 | NCC1O[C@H](O[C@H]2[C@@H](O)[C@H](O[C@@H]3[C@@H](O)[C@H](N)C[C@H](N)[C@H]3O[C@H]3O[C@H](CN)[C@@H](O)[C@H](O)[C@H]3N)O[C@@H]2CSCCNC(=S)NCCCOCCCCOCCCNC(=S)NCc2ccc3c(c2)C(=O)c2ccccc2C3=O)[C@H](N)[C@@H](O)[C@@H]1O (some centres undefined) | Active | 4.02 ×10⁶ /M | 18.4 ×10⁶ /M | –
10 | CN1/C(=C/c2cc[n+](C)c3ccccc23)Sc2ccccc21 | – | – | – | Activity [8]: inactive
11 | CCO | – | – | – | Activity [9]: Active
12 | NCC1O[C@H](O[C@H]2[C@@H](O)[C@H](O[C@@H]3[C@@H](O)[C@H](N)C[C@H](N)[C@H]3O[C@H]3O[C@H](CN)[C@@H](O)[C@H](O)[C@H]3N)O[C@@H]2CNC(=S)NCCNC(=S)NCc2ccc3c(c2)C(=O)c2ccccc2C3=O)[C@H](N)[C@@H](O)[C@@H]1O (some centres undefined) | Active | 4.88 ×10⁶ /M | 3.85 ×10⁶ /M | –
13 | O=C1c2ccccc2C(=O)c2ccccc21 | inactive | – | – | –
14 | NCC1O[C@H](O[C@H]2[C@@H](O)[C@H](O[C@@H]3[C@@H](O)[C@H](N)C[C@H](N)[C@H]3O[C@H]3O[C@H](CN)[C@@H](O)[C@H](O)[C@H]3N)O[C@@H]2CSCCNC(=S)Nc2ccc3c(c2)C(=O)c2ccccc2C3=O)[C@H](N)[C@@H](O)[C@@H]1O (some centres undefined) | Active | – | – | –
15 | NCC1O[C@H](O[C@H]2[C@@H](O)[C@H](O[C@@H]3[C@@H](O)[C@H](N)C[C@H](N)[C@H]3O[C@H]3O[C@H](CN)[C@@H](O)[C@H](O)[C@H]3N)O[C@@H]2CNC(=S)NCCCCCCCCCCNC(=S)NCc2ccc3c(c2)C(=O)c2ccccc2C3=O)[C@H](N)[C@@H](O)[C@@H]1O (some centres undefined) | Active | – | – | –
16 | OCC(F)(F)F | – | – | – | Activity [9]: Active
17 | NCC1O[C@H](O[C@H]2[C@@H](O)[C@H](O[C@@H]3[C@@H](O)[C@H](N)C[C@H](N)[C@H]3O[C@H]3O[C@H](CN)[C@@H](O)[C@H](O)[C@H]3N)O[C@@H]2CSCCNC(=S)NCCNC(=S)NCc2ccc3c(c2)C(=O)c2ccccc2C3=O)[C@H](N)[C@@H](O)[C@@H]1O (some centres undefined) | Active | 2.28 ×10⁶ /M | 3.09 ×10⁶ /M | –
18 | NCC1O[C@H](O[C@H]2[C@@H](O)[C@H](O[C@@H]3[C@@H](O)[C@H](N)C[C@H](N)[C@H]3O[C@H]3O[C@H](CN)[C@@H](O)[C@H](O)[C@H]3N)O[C@@H]2CSCCNC(=S)NCCCNC(=S)NCc2ccc3c(c2)C(=O)c2ccccc2C3=O)[C@H](N)[C@@H](O)[C@@H]1O (some centres undefined) | Active | – | – | –
